The source of these data is patent US20100137346A1, “DESFE[…] ACTINIDE DEC[…]” (priority 2006, published 2010).

For data set [1] the following is noted: cited from earlier work; for iron-clearing activity, in words: C. apella model; for iron-clearing efficiency, in words: in both rodents and primates.
The conditions of data set [2]: in vivo; cited from earlier work.
For data set [3] the following is noted: bile duct-cannulated rodent model; cited from earlier work.
The conditions of data set [4]: rats, same dose; cited from earlier work.
Data set [5] can be described thus: Chelator accumulation in lung tissue. It is filed as in vivo, rodents. To be noted: SC 300 μmol/kg, 0.5 h post drug. An excerpt:
Chelator Access to Lung Tissue. As inhalation is one of the principal routes of potential actinide contamination, in a preliminary study aimed at this proposal, the accumulation of two different DFT analogues in lung tissue, (S)-4′-(HO)-DADMDFT (9, FIG. 1) and (S)-3′,4′-(CH3O)-DADMDFT, 19, Table 2)] was investigated. Rodents were given the drugs SC at a dose of 300 μmol/kg. The latter chelator is far more lipophilic than the former. The more lipophilic chelator (19) achieved a concentration of 290±66 nmol/g wet weight 0.5 h post drug. The level of the less lipophilic ligand (9) was much lower, 80±9 nmol/g wet weight 0.5 h post drug. This is consistent with the idea that organ targeting can be achieved,[Bergeron, et al., Impact of the Lipophilicity of Desferrithiocin Analogues on Iron Clearance, Medicinal Inorganic Chemistry 2005; 366-383] corroborating previous studies and further contributing to the index of success of the invention.

A short description of data set [6]: Chelator-induced uranium excretion (urine + bile, 24 h) in bile duct-cannulated rat model. It is filed as in vivo. To be noted: for % of Administered Dose Cleared: 300 μmol/kg IP Immediate. The procedure: Desferrithiocin Analogue Induced Excretion of Uranium. In order to compare results with previous chelator-induced iron excretion data, the uranium clearance studies were carried out in a bile duct-cannulated rat model. The animals were given uranyl acetate dihydrate SC at a dose of 5 mg/kg (the actual dose of uranium is 2.8 mg/kg). Bile and urine samples were collected for 24 hours after dosing. Kidneys were removed from selected animals and tissue uranium concentration measured. At least three animals were utilized in each experimental group. Data from two separate control studies (uranyl acetate/ no chelator) have now been combined for a total of 14 control animals. All uranium concentrations were measured using ICPMS. The data are reported as the total quantity of uranium excreted [urine +bile]; the mode of excretion [urine/bile] is also given. In addition the percentage of the administered dose of uranium cleared and chelator-induced uranium excretion vs the controls is also given. Four positive controls were evaluated: DTPA (13, Table 1) given as its trisodium calcium salt, DFO (14), N,N′-bis(2hydroxybenzyl)ethylenediamine-N,N′-diacetic acid, monosodium salt (NaHBED, 15) and the hydroxypyridone CP94 (16) shown to bind uranium [Pashalidis, et al., Effective complex formation in the interaction of 1,2-dimethyl-3-hydroxypyrid-4-one (Deferiprone or L1) with uranium(VI), Journal of Radioanalytical and Nuclear Chemistry 1999; 242:181-184.] The total metal cleared after 24 h in control rats was 10% of the administered dose. When DTPA, 13, was given IP or PO at 300 μmol/kg immediately after uranium, the excretion was 17% and 8% of the administered dose respectively (p>0.05). However, when the drug was given IP at a dose of 600 μmol/kg immediately post-metal, the uranium excretion was significant, 20% (p<0.005). This is consistent with previously published data using a similar animal model.[Domingo, et al., Comparative effects of the chelators sodium 4,5-dihydroxybenzene-1,3-disulfonate (Tiron) and diethylenetriaminepentaacetic acid (DTPA) on acute uranium nephrotoxicity in rats, Toxicology 1997; 118:49-59] DFO (14) and CP94 (16) given IP immediately post uranyl acetate were ineffective.
Desferrithiocin Analogue-Induced Excretion of Uranium. In order to compare results with previous chelator-induced iron excretion data, the uranium clearance studies were carried out in a bile duct-cannulated rat model. The animals were given uranyl acetate dihydrate SC at a dose of 5 mg/kg (the actual dose of uranium is 2.8 mg/kg). Bile and urine samples were collected for 24 hours after dosing. Kidneys were removed from selected animals and tissue uranium concentration measured. At least three animals were utilized in each experimental group. Data from two separate control studies (uranyl acetate/ no chelator) are combined for a total of 14 control animals. All uranium concentrations were measured using ICPMS. The data are reported as the total quantity of uranium excreted [urine +bile]; the mode of excretion [urine/bile] is also given. In addition the percentage of the administered dose of uranium cleared and chelator-induced uranium excretion vs the controls is also given. Four positive controls were evaluated: DTPA (1, Table 1) given as its trisodium calcium salt, DFO (2), N,N -bis(2-hydroxybenzyl)ethylenediamine-N,N-diacetic acid, monosodium salt (NaHBED, 3) and the hydroxypyridone CP94 (4) shown to bind uranium. The total metal cleared after 24 h in control rats was 10% of the administered dose. When DTPA, 1, was given IP or PO at 300 μmol/kg immediately after uranium, the excretion was 17% and 8% of the administered dose respectively (p>0.05). However, when the drug was given IP at a dose of 600 μmol/kg immediately post metal, the uranium excretion was significant, 20% (p<0.005). This is consistent with previously published data using a similar animal model.^2 DFO (2) and CP94 (4) given IP immediately post uranyl acetate were ineffective.

For data set [7] the following is noted: cited from earlier work.
The conditions of data set [8]: rodents; cited from earlier work.
The nature of data set [9]: Iron-clearing efficiency (ICE) in iron-overloaded Cebus apella primate. It is filed as in vivo. Particulars: orally to C. apella primates, 150 μmol/kg. The protocol:
In the text below, “iron-clearing efficiency” (ICE) [Bergeron, et al., Effects of C-4 Stereochemistry and C-4′ Hydroxylation on the Iron Clearing Efficiency and Toxicity of Desferrithiocin Analogues, J Med Chem 1999; 42:2432-2440] is used as a measure of the amount of iron excretion induced by a chelator. The ICE, expressed as a percent, is calculated as (ligand-induced iron excretion/theoretical iron excretion)×100. To illustrate, the theoretical iron excretion after administration of one millimole of desferrioxamine (DFO, 14, Table 1), a hexadentate chelator which forms a 1:1 complex with Fe(III), is one milli-g-atom of iron. Two millimoles of desferrithiocin (DFT, 1, FIG. 1), a tridentate chelator which forms a 2:1 complex with Fe(III), are required for the theoretical excretion of one milli-g-atom of iron. In clinical practice, the actual ICE of DFO (14), used to treat people with iron overload, is only 5 to 7% [Pippard, et al., Iron Chelation Using Subcutaneous Infusions of Diethylene Triamine Penta-acetic Acid (DTPA), Scand J Haematol 1986; 36:466-472; Pippard, Desferrioxamine-Induced Iron Excretion in Humans, Bailliere's Clin Haematol 1989; 2:323-343]. […]

The mark [10] stands for this setting: iron-overloaded C. apella primate.
Where [11] appears, read: administered PO at a dose of 150 μmol/kg.

Where two headings read alike, the source gives them in different places.

For `C[C@]1(C(=O)O)CSC(c2ncccc2O)=N1` [Compound 1, (S)-4,5-dihydro-2-(3-hydroxy-2-pyridinyl)-4methyl-4-thiazolecarboxylic acid, reference compound], the ICE in [1] (setting [10]) is reported as 16%; in [3], 5.5%. Further, in data set [2], the “toxicity, in words” value was “severely nephrotoxic”.
For the compound `C[C@]1(C(=O)O)CSC(c2ccccc2O)=N1` [Compound 3, (S)-4,5-dihydro-2-(2-hydroxyphenyl)-4-methyl-4-thiazolecarboxylic acid], in data set [1] (setting [10]), the ICE is 13%. In addition, the “toxicity, in words” value in data set [2] is “Severe gastrointestinal (GI) toxicity”. In addition, in [4], the “outcome of planned 10-day dosing regimen” value was “dead by day 5”.
As for `O=C(O)[C@H]1CSC(c2ccccc2O)=N1` [Compound 4, (S)-4,5-dihydro-2-(2-hydroxyphenyl)-4-thiazolecarboxylic acid], the results for the ICE in data set [1] (setting [11]) and in data set [1] (setting [10]) were 12.4% and 12%, respectively. In [2], the “toxicity, in words” value is listed as “Severe gastrointestinal (GI) toxicity”. Further, in data set [4], the “outcome of planned 10-day dosing regimen” value is listed as “dead by day 5”.
As for `O=C(O)[C@H]1CSC(c2ccc(O)cc2O)=N1` [Compound 9, (S)-2(2,4-dihydroxyphenyl)-4,5-dihydro-4-thiazolecarboxylic acid], the “iron-clearing activity, in words” value in [1] is “compatible with iron clearance”. Besides, the ICE in data set [1] (setting [11]) is 5.3%. Moreover, the “concentration in lung tissue” value in data set [5] is listed as 80±9 nmol/g wet weight. Besides, the “outcome of planned 10-day dosing regimen” value in data set [4] is “did not display any frank toxicity”.
With `C[C@]1(C(=O)O)CSC(c2ccc(O)cc2O)=N1` [Compound 10, (S)-2-(2,4-dihydroxyphenyl)-4,5-dihydro-4-methyl-4-thiazolecarboxylic acid], the “iron-clearing activity, in words” value in data set [1] was “compatible with iron clearance”. In addition, in data set [1] (given orally to the primates at an iron binding equivalent dose), the ICE is recorded as 13.4±5.8%. Further, in data set [4], the “outcome of planned 10-day dosing regimen” value is on record as “did not display any frank toxicity”. Besides, the “% of Administered Dose Cleared” value in data set [6] stood at 19%.
On to `COc1ccc(C2=N[C@@](C)(C(=O)O)CS2)c(O)c1` [Compound 12, (S)-4,5-dihydro2-(2-hydroxy-4-methoxyphenyl)4-methyl-4-thiazolecarboxylic acid], for which the “iron-clearing efficiency, in words” value in data set [1] is “excellent iron-clearing efficiency”. Moreover, the “metabolite formed by metabolic O-demethylation” value in [7] (in vivo) is recorded as “(S)-4′-(HO)-DADFT (10)”. Also, in data set [2], the “toxicity, in words” value is “too toxic for clinical consideration”. Also, the “% of Administered Dose Cleared” value in data set [6] turned out to be 20%. In data set [6] (IP 300 μmol/kg, given 0.5 h post metal), the “uranium excretion, in words” value is on record as “within error of control”.
As for `COCCOCCOCCOc1ccc(C2=N[C@@](C)(C(=O)O)CS2)c(O)c1` [Compound 18, (S)-4,5-dihydro-2-[2-hydroxy-4-(3,6,9-trioxadecyloxy)phenyl]-4methyl-4-thiazolecarboxylic acid], in [1], the “iron-clearing efficiency, in words” value is given as “highly efficient iron chelator”. In data set [7] (rodents), the “kidney concentration versus 10” value is given as “significantly lower concentrations in the kidney” and the “liver concentration versus 10” value is “higher concentrations in the liver”. Further, the “tolerability versus 10” value in data set [8] was “more tolerable”. For the same compound, the “% of Administered Dose Cleared” value in [6] is recorded as 22%.
With `COc1ccc(C2=N[C@@H](C(=O)O)CS2)c(O)c1OC` [Compound 19, (S)-4,5-dihydro-2(3,4-dimethoxy-2-hydroxyphenyl)-4-thiazolecarboxylic acid], the “concentration in lung tissue” value in data set [5] was determined as 290±66 nmol/g wet weight.
For `COc1ccc(C2=N[C@@H](C(=O)O)CS2)c(O)c1OC` [drawing 26], in data set [9], the “Iron Clearing Efficiency (%)” value was determined as 12.4 ± 6.2%. For the same compound, the “relative percentages of the iron excreted in the stool and urine” value in data set [9] ([stool/urine]) is 94/6.
